Results published in PMC11249646, “Small-Molecule Disruptors of the Interaction between Calcium- and Integrin-Binding Protein 1 and Integrin αIIbβ3 as Novel Antiplatelet Agents” (ACS Pharmacology & Translational Science, 2024).
Where two headings read alike, the source gives them in different places.

Molecular target: T1, CIB1 and αIIb interaction (CIB1-GST : F-αIIb peptide) (Homo sapiens, UniProt Q99828)
T1 construct: made in house; host or cells: BL-21 plus RIL cells (E. coli)
T1 sequence (Q99828 1-191): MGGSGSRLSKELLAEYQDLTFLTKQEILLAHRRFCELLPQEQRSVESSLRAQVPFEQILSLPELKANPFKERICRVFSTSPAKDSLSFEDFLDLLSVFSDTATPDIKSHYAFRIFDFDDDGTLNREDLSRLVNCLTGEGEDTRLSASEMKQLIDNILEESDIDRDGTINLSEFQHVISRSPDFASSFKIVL
Experiment: FP assay, 1536-well qHTS format (primary and confirmatory screen)
Type: binding
Settings: for Efficacy (%): negative = inhibition; for Curve Class: negative sign = inhibitory curve; for IC50: read-out: IC50

[1] = qHTS primary screen hits, Table S2
[2] = qHTS primary screen hits, Table S2, several classes where COUNT > 1
[3] = qHTS primary screen of LOPAC/NPACT libraries

Structure (SMILES) | Efficacy (%) [1] [%] | Curve Class [1] | IC50 [1] [µM] | Curve Class [2] | other results
Cc1cc(C)nc(NC(=S)N2CCN(c3cccc4ccncc34)CC2)c1.O=C(O)C(F)(F)F [NCGC00244146-01] | -30 | -2.4 | 79.4 |  | 
Cc1cc(C)nc(NC(=S)N2CCN(c3ccc4nonc4c3)CC2)c1.O=C(O)C(F)(F)F [NCGC00244156-01] | -25 |  | 50.1 | -2.4 | 
CN(C)CCc1c[nH]c2ccc(O)cc12 [NCGC00247724-01] | -23 | -2.4 | 112 |  | 
CCOC(=O)c1nnc(NS(=O)(=O)c2ccc(NC(=O)Cc3ccc(Cl)c(Cl)c3)cc2)s1.O=C(O)C(F)(F)F [NCGC00248354-02] | -28 |  | 31.4 |  | 
Cc1c2c(=O)n(-c3ccccc3)[nH]c2cc(=O)n1Cc1ccco1.O=C(O)C(F)(F)F [NCGC00248469-01] | -43 |  | 56.2 | -2.4 | 
Cc1c2c(=O)n(-c3ccccc3)[nH]c2cc(=O)n1CCc1ccccc1.O=C(O)C(F)(F)F [NCGC00248471-01] | -28 |  | 50.1 | -2.4 | 
Cc1c2c(=O)n(-c3ccccc3)[nH]c2cc(=O)n1Cc1ccncc1.O=C(O)C(F)(F)F [NCGC00248478-01] | -31 |  | 50.1 | -2.4 | 
O=C(Nc1ccc(S(=O)(=O)N2CCOCC2)cc1)c1cc(Cl)ccc1NS(=O)(=O)c1ccc(Cl)s1 [NCGC00249417-02] |  |  |  |  | Efficacy (%) (qHTS FP screen hits, Table S2): -34%; IC50 (qHTS FP screen hits, Table S2): 40.9 µM
CCCc1c(O)c(O)c(C(=O)O)c2cc(Cc3ccccc3)c(C)cc12 [NCGC00249596-02] | -48 |  | 44.7 | -2.2 | 
O=C(O)C(F)(F)F.c1ccc(-n2cc(-c3nnc4n3CCCCC4)cn2)cc1 [NCGC00249642-01] | -39 | -2.4 | 89.1 |  | 
Cc1cc(NS(=O)(=O)c2ccc(Nc3nc(-c4ccc(C)c(C)c4)cs3)cc2)no1.O=C(O)C(F)(F)F [NCGC00249742-01] | -32 |  | 44.7 | -2.4 | 
CC(=O)N1CCN(c2ccc(NC[C@H]3CO[C@](Cn4ccnc4)(c4ccc(Cl)cc4Cl)O3)cc2)CC1 [NCGC00250372-03] | -45 |  | 44.7 | -2.4 | 
N#Cc1ccc(NS(=O)(=O)c2ccc(NC(=O)Cc3ccc(Cl)c(Cl)c3)cc2)cc1.O=C(O)C(F)(F)F [NCGC00253445-02] |  |  |  |  | Efficacy (%) (qHTS FP screen hits, Table S2): -18%; IC50 (qHTS FP screen hits, Table S2): 3.5 µM
COc1ccnc2c1CCCCC2[S+]([O-])c1nc2ccccc2[nH]1 (stereo not drawn) [NCGC00253591-01] | -30 |  | 56.2 | -2.2 | 
Cc1cnc(-c2ccccc2C(C)C)nc1NC(C)c1ccc(-c2cccnc2)cc1.O=C(O)C(F)(F)F (stereo not drawn) [NCGC00253889-01] | -56 | -2.4 | 56.2 |  | 
CN(Cc1cnc2nc(N)nc(N)c2n1)c1ccc(C(=O)N[C@@H](CCC(=O)O)C(=O)O)cc1 [NCGC00260705-01] | -58 | -2.2 | 44.7 |  | 
COc1ccc(Br)cc1S(=O)(=O)NC(=O)/C=C/c1ccccc1Cc1ccc2ccccc2c1 [NCGC00260960-01] | -50 | -2.2 | 22.4 |  | 
CN1C[C@H](C(=O)N[C@]2(C)O[C@@]3(O)[C@@H]4CCCN4C(=O)[C@H](Cc4ccccc4)N3C2=O)C[C@@H]2c3cccc4[nH]cc(c34)C[C@H]21.CS(=O)(=O)O [NCGC00261042-01] |  |  |  |  | Efficacy (%) [3]: -32%; Curve Class [3]: -2.4; IC50 [3]: 56.2 µM
O=c1c(-c2ccc(O)cc2)coc2cc(O)ccc12 [NCGC00261097-01] |  |  |  |  | Efficacy (%) [3]: -11%; Curve Class [3]: -2.4; IC50 [3]: 56.2 µM
O=C1c2ccccc2-c2n[nH]c3cccc1c23 [NCGC00261158-01] | -52 | -1.2 | 14.1 |  | 
O=C1NCc2c1c1c3ccccc3[nH]c1c1[nH]c3ccccc3c21 [NCGC00261167-01] |  |  |  |  | Efficacy (%) [3]: -24%; Curve Class [3]: -1.4; IC50 [3]: 1.4 µM
O=C1NC(=O)/C(=C/c2ccc3c(c2)OC(F)(F)O3)S1 [NCGC00261190-01] | -33 | -1.2 | 17.8 |  | 
CCOC(=O)N1CCN([N+]([O-])=NOc2ccc([N+](=O)[O-])cc2[N+](=O)[O-])CC1 [NCGC00261300-01] | -44 |  | 21.3 |  | 
Cl.O=c1cc(N2CCOCC2)oc2c(-c3ccccc3)cccc12 [NCGC00261395-01] | -52 | -2.2 | 50.1 |  | 
O=c1c(O)c(-c2ccc(O)cc2O)oc2cc(O)cc(O)c12 [NCGC00261461-01] |  |  |  |  | Efficacy (%) [3]: -26%; Curve Class [3]: -1.2; IC50 [3]: 4 µM

Structure (SMILES) | Efficacy (%) [1] [%] | Curve Class [1] | IC50 [1] [µM] | Curve Class [2] | other results
CCCCc1ncc(/C=C(\Cc2cccs2)C(=O)O)n1Cc1ccc(C(=O)O)cc1.CS(=O)(=O)O [NCGC00261493-01] |  |  |  |  | Efficacy (%) [3]: -9%; Curve Class [3]: -1.4; IC50 [3]: 31.6 µM
COC(=O)C1=C(C)NC(C)=C(C(=O)OCCN(C)Cc2ccccc2)C1c1cccc([N+](=O)[O-])c1.Cl (stereo not drawn) [NCGC00261494-01] |  |  |  |  | Efficacy (%) [3]: -16%; Curve Class [3]: -1.2; IC50 [3]: 3.5 µM
O=C1NC(=O)/C(=C/c2ccc3nccnc3c2)S1 [NCGC00261632-01] |  |  |  |  | Efficacy (%) [3]: -20%; Curve Class [3]: -1.2; IC50 [3]: 7.9 µM
CCN(CC)CCOc1ccc(Nc2ncc3cc(-c4c(Cl)cccc4Cl)c(=O)n(C)c3n2)cc1.Cl.Cl.O [NCGC00261745-01] | -36 | -2.2 | 50.1 |  | 
O=C1c2c(O)cc(O)cc2OC(c2ccc(O)c(O)c2)C1O (stereo not drawn) [NCGC00261882-01] |  |  |  |  | Efficacy (%) [3]: -14%; Curve Class [3]: -1.2; IC50 [3]: 10 µM
CN1CCN(CCCN2c3ccccc3Sc3ccc(C(F)(F)F)cc32)CC1.Cl.Cl [NCGC00261917-01] |  |  |  |  | Efficacy (%) [3]: -35%; Curve Class [3]: -2.4
O=C(O)CCCC[P+](c1ccccc1)(c1ccccc1)c1ccccc1.[Br-] [NCGC00261975-01] | -44 |  | 56.2 | -2.4 | 
O=C(O)C(F)(F)F.O=C(c1ccc2c(c1)ncn2-c1ccc(C(F)(F)F)cc1)N1CCCCC1 [NCGC00262230-01] | -43 | -2.2 | 44.7 |  | 
O=C(Cn1nc(-c2ccc(F)cc2)ccc1=O)NCCc1ccccc1.O=C(O)C(F)(F)F [NCGC00262332-01] | -24 | -2.4 | 56.2 |  | 
CC(C)COc1ccc(-c2ccc(=O)n(CC(=O)NCCc3ccccc3)n2)cc1.O=C(O)C(F)(F)F [NCGC00262348-01] | -38 | -2.4 | 56.2 |  | 
O=C(O)C(F)(F)F.O=C(c1cnc(N2CCCCC2)c2ccccc12)N1CCN(c2ccccc2)CC1 [NCGC00262736-01] | -64 | -3 | 31.6 |  | 
O=Cc1ccc(O)c(O)c1O [NCGC00262933-01] | -62 |  | 56.2 | -2.4 | 
Cc1ccc(S(=O)(=O)Nc2ccc(OC(F)(F)F)cc2C(=O)Nc2nc(-c3ccccc3)cs2)cc1.O=C(O)C(F)(F)F [NCGC00262991-01] | -27 | -2.4 | 44.7 |  | 
CCCCCCCc1ccc(CCc2cccc(O)c2C(=O)O)cc1 [NCGC00263121-01] | -33 |  | 24.1 | -3 | 
COc1ccccc1-c1cccc(-c2c(O)c3cc(C#N)c(Cl)cc3[nH]c2=O)c1 [NCGC00263230-01] | -24 |  | 62.2 | -2.4 | 
Nc1nc2[nH]cnc2c(=S)[nH]1 [NCGC00263442-01] | -56 | -3 | 79.4 |  | 
CN(C)[C@@H]1C(=O)C(C(=O)NCN2CCCC2)=C(O)[C@@]2(O)C(=O)C3=C(O)c4c(O)cccc4[C@@](C)(O)[C@H]3C[C@@H]12 [NCGC00263906-02] | -27 | -2.4 | 56.2 |  | 
COc1cccc2c1C(=O)c1c(O)c3c(c(O)c1C2=O)C[C@@](O)(C(=O)CO)C[C@@H]3O[C@H]1C[C@H](N)[C@@H](O)[C@H](C)O1 [NCGC00263918-04] | -58 |  | 18.5 |  | 
Cc1ccc(C)n1-c1cnccc1C(=O)O.O=C(O)C(F)(F)F [NCGC00273496-01] | -39 | -2.4 | 44.7 |  | 
Cc1ccc(C)n1-c1ccc(C(=O)O)cc1.O=C(O)C(F)(F)F [NCGC00273552-01] | -38 |  | 44.7 | -2.2 | 
Cc1ccc(S(=O)(=O)Nc2ccc(O)c3ccccc23)c(C)c1.O=C(O)C(F)(F)F [NCGC00273983-01] | -34 |  | 56.2 | -2.4 | 
Cc1ccc(C)n1-c1ccccc1C(=O)O.O=C(O)C(F)(F)F [NCGC00274054-01] | -40 |  | 50.1 | -2.4 | 
Nc1nc2c(s1)C(c1ccccc1Cl)CC(O)=N2 (stereo not drawn) [NCGC00284018-04] | -37 | -2.4 | 53.2 |  | 
CC(=O)NCc1ccc(-c2csc(Nc3cccc(C)c3)n2)o1.O=C(O)C(F)(F)F [NCGC00304445-03] | -38 |  | 44.7 | -2.4 | 
